Assay results: ChEMBL document CHEMBL1201862, “PubChem BioAssay data set” (2004)
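Grown in 96-well plates, cells were treated for 48 hours with each compound at five concentrations. Insufficient inhibition: endpoint recorded as highest concentration tested. At the GI50, growth is halved.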 Active and inactive are the calls of the source. No stated cut-off is given here; in the data, active = GI50 up to about 1.1 µM and inactive = higher.

Tests used:
Experiment in all cases: DTP human tumour cell line panel, 48 h
786-0 = tested on: 786-0
A498 = tested on: A498
A549 = tested on: A549
ACHN = tested on: ACHN
CAKI-1 = tested on: CAKI-1
CCRF-CEM = tested on: CCRF-CEM
COLO 205 = tested on: COLO 205
DLD-1 = tested on: DLD-1
DMS-114 = tested on: DMS-114
DMS-273 = tested on: DMS-273
EKVX = tested on: EKVX
HCC 2998 = tested on: HCC 2998
HCT-116 = tested on: HCT-116
HCT-15 = tested on: HCT-15
HL-60 = tested on: HL-60
HOP-18 = tested on: HOP-18
HOP-62 = tested on: HOP-62
HOP-92 = tested on: HOP-92
HT-29 = tested on: HT-29
IGROV-1 = tested on: IGROV-1
K562 = tested on: K562
KM-20L2 = tested on: KM-20L2
KM12 = tested on: KM12
LOX IMVI = tested on: LOX IMVI
LXFL 529 = tested on: LXFL 529
M14 = tested on: M14
M19-MEL = tested on: M19-MEL
MOLT-4 = tested on: MOLT-4
Malme-3M = tested on: Malme-3M
NCI-H226 = tested on: NCI-H226
NCI-H23 = tested on: NCI-H23
NCI-H460 = tested on: NCI-H460
NCI-H522 = tested on: NCI-H522
OVCAR-3 = tested on: OVCAR-3
OVCAR-4 = tested on: OVCAR-4
OVCAR-5 = tested on: OVCAR-5
OVCAR-8 = tested on: OVCAR-8
RPMI-8226 = tested on: RPMI-8226
RXF 393 = tested on: RXF 393
RXF 631 = tested on: RXF 631
SF-268 = tested on: SF-268
SF-295 = tested on: SF-295
SF-539 = tested on: SF-539
SK-MEL-28 = tested on: SK-MEL-28
SK-MEL-2 = tested on: SK-MEL-2
SK-MEL-5 = tested on: SK-MEL-5
SK-OV-3 = tested on: SK-OV-3
SN12C = tested on: SN12C
SNB-19 = tested on: SNB-19
SNB-75 = tested on: SNB-75
SNB-78 = tested on: SNB-78
SW-620 = tested on: SW-620
TK-10 = tested on: TK-10
U-251 = tested on: U-251
UACC-257 = tested on: UACC-257
UACC-62 = tested on: UACC-62
UO-31 = tested on: UO-31

CC(=O)OC1CC[C@@]2(C)C(CC(OC3OC(CO)C(O)C(O)C3O)[C@]3(C)C2CCC24CC23CC[C@H]4C(C)CC(O)[C@@H](O)C(C)(C)O)C1(C)C (some centres not stated)
GI50 (786-0): 13.1 µM (inactive)
GI50 (A498): 16.8 µM (inactive)
GI50 (A549): > 50 µM (inactive)
GI50 (ACHN): > 50 µM (inactive)
GI50 (CAKI-1): 41.7 µM (inactive)
GI50 (CCRF-CEM): 11.4 µM (inactive)
GI50 (COLO 205): 9.4 µM (inactive)
GI50 (DLD-1): 15.5 µM (inactive)
GI50 (DMS-114): 10.8 µM (inactive)
GI50 (DMS-273): 18.2 µM (inactive)
GI50 (EKVX): 16.3 µM (inactive)
GI50 (HCC 2998): 11.7 µM (inactive)
GI50 (HCT-116): 9.91 µM (inactive)
GI50 (HCT-15): > 50 µM
GI50 (HL-60): 11.6 µM (inactive)
GI50 (HOP-18): 14 µM (inactive)
GI50 (HOP-62): 18.6 µM (inactive)
GI50 (HOP-92): 10 µM (inactive)
GI50 (HT-29): 16.9 µM (inactive)
GI50 (IGROV-1): 11.5 µM (inactive)
GI50 (K562): 15.4 µM (inactive)
GI50 (KM-20L2): 19.9 µM (inactive)
GI50 (KM12): 10.5 µM (inactive)
GI50 (LOX IMVI): 8.61 µM (inactive)
GI50 (LXFL 529): 8.99 µM (inactive)
GI50 (M14): 12 µM (inactive)
GI50 (M19-MEL): 8.07 µM (inactive)
GI50 (MOLT-4): 11.4 µM (inactive)
GI50 (Malme-3M): 9.51 µM (inactive)
GI50 (NCI-H226): 17 µM (inactive)
GI50 (NCI-H23): > 50 µM (inactive)
GI50 (NCI-H460): 18.8 µM (inactive)
GI50 (NCI-H522): 8.63 µM (inactive)
GI50 (OVCAR-3): 16.5 µM (inactive)
GI50 (OVCAR-4): > 50 µM (inactive)
GI50 (OVCAR-5): > 50 µM (inactive)
GI50 (OVCAR-8): 19.9 µM (inactive)
GI50 (RPMI-8226): 10.3 µM (inactive)
GI50 (RXF 393): 12.5 µM (inactive)
GI50 (RXF 631): 29 µM (inactive)
GI50 (SF-268): 18.4 µM (inactive)
GI50 (SF-295): 22.4 µM (inactive)
GI50 (SF-539): 10.3 µM (inactive)
GI50 (SK-MEL-28): 9.77 µM (inactive)
GI50 (SK-MEL-2): 10.3 µM (inactive)
GI50 (SK-MEL-5): 8.93 µM (inactive)
GI50 (SK-OV-3): > 50 µM (inactive)
GI50 (SN12C): 12.7 µM (inactive)
GI50 (SNB-19): 14.2 µM (inactive)
GI50 (SNB-75): 11.4 µM (inactive)
GI50 (SNB-78): > 5 µM (inactive)
GI50 (SW-620): 16.6 µM (inactive)
GI50 (TK-10): 22.9 µM (inactive)
GI50 (U-251): 9.71 µM (inactive)
GI50 (UACC-257): 11.7 µM (inactive)
GI50 (UACC-62): 9.2 µM (inactive)
GI50 (UO-31): > 50 µM (inactive)
